Results: US20220273637A1, “NOVEL PFAR-INHIBITING COMPOUNDS” (UNIVERSITE DE BRETAGNE OCCIDENTALE (UBO), priority 2019, published 2022)

Test system: PFAR (protein folding activity of ribosome)
Test: Inhibition of PFAR in yeast cells (LuxAB luciferase refolding after heat shock)
Assay type: cell-based
Conditions: not given

| SMILES | inhibition of PFAR |
| --- | --- |
| c1ccc(CN(CC2=NCCN2)c2ccccc2)cc1 [antazoline] | do not inhibit PFAR |
| CN1C(=O)CN=C(c2ccccc2)c2cc(Cl)ccc21 [diazepam] | do not inhibit PFAR |

Test system: PABPN1 aggregates
Test: not given
Assay type: cell-based, murine
Conditions: not given

| SMILES | nuclei having aggregates of the PABPN1 protein | activity compared with guanabenz (positive control) |
| --- | --- | --- |
| COc1ccc(CCN2CCC(Nc3nc4ccccc4n3Cc3ccc(F)cc3)CC2)cc1 [astemizole] | reduce the amount of muscle cell nuclei containing PABPN1 aggregates | – |
| CN1CCCC(n2nc(Cc3ccc(Cl)cc3)c3ccccc3c2=O)CC1 (centres unmarked) [azelastine] | reduce the amount of muscle cell nuclei containing PABPN1 aggregates | – |
| CN1CCC[C@@H]1CCO[C@](C)(c1ccccc1)c1ccc(Cl)cc1 [clemastine] | negative | – |
| CN1C(=O)CN=C(c2ccccc2)c2cc(Cl)ccc21 [diazepam] | negative | – |
| CNCC[C@H](Oc1cccc2ccccc12)c1cccs1 [duloxetine] | reduce the amount of muscle cell nuclei containing PABPN1 aggregates | – |
| CC(C)(C)c1ccc(C(=O)CCCN2CCC(OC(c3ccccc3)c3ccccc3)CC2)cc1 [ebastine] | reduce the amount of muscle cell nuclei containing PABPN1 aggregates | – |
| CN(C)C(=O)C(CCN1CCC(O)(c2ccc(Cl)cc2)CC1)(c1ccccc1)c1ccccc1 [loperamide] | reduce the amount of muscle cell nuclei containing PABPN1 aggregates | – |
| CN1CCCC(CC2c3ccccc3Sc3ccccc32)C1 (centres unmarked) [metixene] | reduce the amount of muscle cell nuclei containing PABPN1 aggregates | more active than guanabenz |
| CSc1ccc2c(c1)N(CCC1CCCCN1C)c1ccccc1S2 (centres unmarked) [thioridazine] | reduce the amount of muscle cell nuclei containing PABPN1 aggregates | – |
| CN(C)CCCN1c2ccccc2Sc2ccc(C(F)(F)F)cc21 [triflupromazine] | negative | – |

Test system: Drosophila expressing PABPN1-17ala
Test: Drosophila model of OPMD (PABPN1-17ala): abnormal wing position
Assay type: in vivo
Conditions: 2 mM in food, day 3 to day 6, chi-squared test
Text: The model used is a fruit fly model for OPMD in which the mammalian protein PABPN1 with a repetition of 17 alanines (PABPN1-17a1a) is specifically expressed in the muscles of Drosophila (Chartier et al. 2006; Chartier et al. 2015). These models reproduce the characteristics of the disease, i.e. weakness and progressive muscular degeneration, and also the formation of nuclear PABPN1 aggregates. Thus, the expression of PABPN1-17ala in the indirect wing muscles leads to an abnormal wing posture, resulting from the disorder of the muscle function and degeneration of the muscles (Chartier et al. 2006). […]
The compounds were administered in the food, prepared as follows: an instant Drosophila medium (Carolina Biological Supply Company) was reconstituted in each tube with a 1% solution of yeast in water, supplemented by the compounds dissolved in DMSO with an increasing concentration, or with DMSO alone. […] The effect of the compounds was quantified by the daily measurement of the number of flies presenting an abnormal wing posture, corresponding to the flies expressing PABPN1-17ala, from day 3 to day 6 of the adult age: groups of five males per condition are placed in an empty tube and the number of males having an abnormal wing position is recorded by direct observation of the flies in the tube, without anesthesia.

| SMILES | number of flies presenting an abnormal wing posture relative to DMSO |
| --- | --- |
| CN1CCCC(CC2c3ccccc3Sc3ccccc32)C1 (centres unmarked) [metixene] | significant reduction |
